Patent publication EP0136586A2, “Novel corticoid derivatives and process for production thereof” (priority 1983, dated 1985)

Assays:
[1] = system: edema; experiment: Topical anti-inflammatory activity (croton oil ear edema); format: in vivo, Male mice of ddY-strain; conditions: for R=A/B: anti-inflammatory activity ratio (A) divided by thymolytic activity ratio (B); for Anti-inflammatory activity ratio (A): ratio against clobetasol 17-propionate (=1), linear regression parallel test method, edema-repressing rate, topical application to mouse ear with croton oil, 5th hour after application
Experimental: 0.9 % sodium chloride, 0.4 % Tween 80, 0.5 % carboxymethyl cellulose and 0.9 % benzyl alcohol are dissolved or suspended in distilled water, which is used as a suspending medium. The compounds to be tested are dissolved in a mixture of the suspending medium : pyridine : diethyl ether = 1 : 4 : 5 and mixed with equal volume of diethyl ether containing 10 % croton oil and the mixture is used as the test liquid. Commercially available felt having a thickness of 5 mm is cut in 7mm x 7 mm square and adhered to ring tweezers using alkyl-a-cyanoacrylate. The felt is soaked in the test liquid and the liquid is applied to the right ear of the mouse by rubbing it with the felt at a fixed pressure without anesthesia. The left ear is left untreated. At 5th hours after application, mice are killed and both of the ears are cut and weighed. The rate (%) of increase in the weight of right ear against that of left ear is calculated as the edema ratio. Edema ratios obtained on the test compounds are compared with those obtained on control and edema-repressing rate is obtained.

[2] = system: thymus gland; conditions: rat, in vivo, sc, 11520 min
Experimental: 2) Experiment on thymolytic action
The compounds to be tested are dissolved in a liquid consisting of croton oil : cotton seed oil : ethanol = 1:89:10 and the solution is used for injection.
The rats are anesthesized by inhalation of ether and 20 ml of air are subcutaneously injected into hypodermic organ at the back of the rats using a thin injection needle to form an oval-shaped air cavity. After the rats recovered from anesthesia they are kept on normal food and water. At 8th days after injection, rats are killed by depletion and dissected. The thymus gland is taken out and the wet weight is measured. Thymus weights obtained on the test compounds are divided with those obtained on control, and thymus gland atrophy rate is obtained.
In each of the experiments on anti-inflammatory activity and thymolytic action, clobetasol 17-propionate and betamethasone 17,21-dipropionate are used standard compounds and anti-inflammatory activity ratio and thymolytic activity ratio against clobetasol 17-propionate are calculated using linear regression parallel test method.

Compound	R=A/B [1]	Anti-inflammatory activity ratio (A) [1]	Thymolytic activity ratio (B) [2]
CCOC(=O)CCCC(=O)O[C@]1(C(=O)CCl)[C@@H](C)C[C@H]2[C@@H]3CCC4=CC(=O)C=C[C@]4(C)[C@@]3(F)[C@@H](O)C[C@@]21C [Example 15, 21-chloro-9α-fluoro-16β-methyl-1,4-pregnadiene-11β,17α-diol-3,20-dione 17a-(y-ethoxycarbonyl butyrate)]	57	0.68	0.012
COC(=O)CCC(=O)O[C@]1(C(=O)CCl)[C@@H](C)C[C@H]2[C@@H]3CC(=O)C4=CC(=O)C=C[C@]4(C)[C@@]3(F)[C@@H](O)C[C@@]21C [Example 13, 21-chloro-9α-fluoro-16β-methyl-1,4-pregnadiene-11β,17α-diol-3,6,20-trione 17α-(β-methoxycarbonyl propionate)]	>100	1.0	<0.01
COC(=O)CCC(=O)O[C@]1(C(=O)CCl)[C@@H](C)C[C@H]2[C@@H]3CCC4=CC(=O)C=C[C@]4(C)[C@@]3(F)[C@@H](O)C[C@@]21C [Example 12, 21-chloro-9α-fluoro-16β-methyl-1,4-pregnadiene-11β,17α-diol-3,20-dione 17a-(6-methoxycarbonyl propionate)]	18	1.3	0.072
CCC(=O)OCC(=O)[C@@]1(OC(=O)CC)[C@@H](C)C[C@H]2[C@@H]3CCC4=CC(=O)C=C[C@]4(C)[C@@]3(F)[C@@H](O)C[C@@]21C [Betamethasone 17,21-dipropionate, betamethasone 17,21-dipropionate, reference compound]	2.7	0.080	0.030
CCOC(=O)CCC(=O)O[C@]1(C(=O)CCl)[C@@H](C)C[C@H]2[C@@H]3CCC4=CC(=O)C=C[C@]4(C)[C@@]3(F)[C@@H](O)C[C@@]21C [Example 17, 21-chloro-9α-fluoro-16β-methyl-1,4-pregnadien-11β,17α-diol-3,20-dione 17α-(β-ethoxycarbonyl propionate)]	80	0.56	0.007
COC(=O)CCC(=O)O[C@]1(C(=O)CCl)[C@H](C)C[C@H]2[C@@H]3CCC4=CC(=O)C=C[C@]4(C)[C@@]3(F)[C@@H](O)C[C@@]21C [Example 14, 21-chloro-9α-fluoro-16α-msthyl-1,4-pregnadiene-11β,17α-diol-3,20-dione 17α-(β-methoxycarbonyl propionate)]	> 20	0.2	<0.01
COC(=O)O[C@]1(C(=O)CCl)[C@@H](C)C[C@H]2[C@@H]3CCC4=CC(=O)C=C[C@]4(C)[C@@]3(F)[C@@H](O)C[C@@]21C [Comparative Example 2, 21-chloro-9α-fluoro-16β-methyl-1,4-pregnadiene-11β,17α-diol-3,20-dione 17a-methyl carbonate, reference compound]	0.8	0.96	1.2
CCC(=O)O[C@]1(C(=O)CCl)[C@@H](C)C[C@H]2[C@@H]3CCC4=CC(=O)C=C[C@]4(C)[C@@]3(F)[C@@H](O)C[C@@]21C [Clobetasol 17-propionate, clobetasol 17-propionate, reference compound]	1	–	1
CCCOC(=O)O[C@]1(C(=O)CCl)[C@@H](C)C[C@H]2[C@@H]3CC(=O)C4=CC(=O)C=C[C@]4(C)[C@@]3(F)[C@@H](O)C[C@@]21C [Example 6, 21-chloro-9α-fluoro-16β-methyl-1,4-pregnadiene-11β,17α-diol-3,6,20-trione 17a-propyl carbonate]	3.1	0.74	0.24
CCC(=O)O[C@]1(C(=O)CCl)[C@@H](C)C[C@H]2[C@@H]3CC(=O)C4=CC(=O)C=C[C@]4(C)[C@@]3(F)[C@@H](O)C[C@@]21C [Comparative Example 1, 21-chloro-9α-fluoro-16β-methyl-1,4-pregnadiene-11S,17a-diol-3,6,20-trione 17a-propionate, reference compound]	1.8	0.53	0.29
21-chloro-9α-fluoro-16β-mathyl-1,4-pregnadiene-11β,17α-diol-3,6,20-trione 17α-methyl carbonate [Example 2]	–	3.0	0.018
21-chloro-9a-fluoro-16a-methyl-l,4-pregnadiene-11β,17α-diol-3,6,20-trione 17a-methyl carbonate [Example 8]	–	0.51	–
21-chloro-9α-fluoro-16β-methyl-1,4-pregnadiene-11β,17α-diol-3,6,20-trione 17a-ethyl carbonate [Example 4]	–	1.3	0.048
